Reference: patent publication US7704957B2, “Composition for inhibiting HIV activity extracted from Paecilomyces sp. (Tochu-kaso) J300” (priority 2001, dated 2010)
Residues, ends and D or L forms follow the SMILES beside them.

How the values were obtained:
[1] = tested on: HIV; assay: Functional mechanism: sample added 30 minutes before or after virus infection; assay type: cell-based; settings: sample 30 minutes before infection, FIG. 7
Experimental: To determine whether a material functions or not in the cell, the mixture of cell and sample is incubated for 30 minutes then infected with virus. […] In these case, the samples permeate the membranes of the cell and suppress the propagation of the virus in the cell, as well as the samples attach on the surface of the cell and suppress the introduction of the virus into the cell (FIG. 7)
In addition, after the cell was infected with the virus and incubated for 30 minutes, then the extracts of Tochu-kaso J300 were administered. If the functional site of the active material is out of the cell, the anti-HIV activity would not be detected; on the other hand, if the functional site is in the cell, the activity would be detected. […] This proves that the active material suppresses the propagation of the virus in the cell, even when the sample is administered after a long time after the infection of the cell with virus (FIG. 8).

[2] = tested on: HIV; assay: Anti-HIV activity: survivability of cells protected from destruction by HIV, XTT method (National Cancer Institute method); assay type: cell-based; settings: fractions Dong 1-2-1 to 1-2-8
Experimental: In FIGS. 2 to 8, 11 and 18, the term “Infected” (diamond mark ♦) is for the samples that a reagent is applied after the cells are infected with the virus to observe the protection of cells from the cell destruction of HIV. The term “Uninfected” (square mark □) is for the samples that only reagent is added with different concentration to observe the toxicity of the reagent according to the concentration. Further, X axis represents the concentration of the sample and Y axis represents the survivability of the cells in percentages (%).
In the present invention, the measurement of anti-HIV activity followed the method of National Cancer Institute (U.S.A.). In the method, survivability of cells that are protected from the destruction due to HIV was measured when the cells were treated with the active component of the present invention to determine the anti-HIV activity of the material.
In detail, the mixture of cell+HIV+sample (active compound) was cultured for 1 week, and then cell toxicity was measured by XTT method. […]
In this example, colorimetric assay was adopted to observe the growth and death of the cells, which uses the fact that tetrazole salt (MTT, XTT, WST-1) is broken only in the living cell to form non-soluble formazan structure. By quantitating the amount of the formazane wih ELISA method, the amount of living cell is measured quantitatively. […]

SMILES	activity when sample is added to the cell and virus infected 30 minutes later [1]	anti-AIDS activity of fractions of Dong 1-2 [2]
CC(C)CC(NC(=O)C1CCCN1)C(=O)O (stereo not drawn) [Dong 1-2-5, 4-methyl-2-[(pyrolidine-2-carbonyl)-2-amino]pentanoic acid] (H-Pro-Leu-OH; configuration not given here)	showed activity	more intense activity compared to others
COC(C)C1NC(=O)C(CCC(=O)O)NC1=O (stereo not shown) [Dong 1-2-4, 3-[5-(methoxy-ethyl)-3,6-dioxo-piperazine-2-yl]propionic acid]	showed activity	more intense activity compared to others
